Where a name gives a salt, the structure may show the parent alone.
Row | melting point | SMILES
1 | 158 to 160 °C | O=C(CCc1ccccc1)N1CCCn2c1nc(-c1ccncc1)cc2=O (as salt: salt) [Compound No 25 of Table 1, 9-[3-phenylpropanoyl]-2-pyridin-4-yl-6,7,8,9-tetrahydro-4H-pyrimido[1,2-a]pyrimidin-4-one]
2 | 194 to 196 °C | CC(C(=O)c1ccccc1)N1CCCn2c1nc(-c1ccncc1)cc2=O (racemic) (as salt: hydrochloride) [Compound No 73 of Table 1, 9-[1-methyl-2-oxo-2-phenyl-ethyl]-2-pyridin-4-yl-6,7,8,9-tetrahydro-4H-pyrimido[1,2-a]pyrimidin-4-one]
3 | 232 to 234 °C | CC(C(O)c1ccccc1)N1CCCn2c1nc(-c1ccncc1)cc2=O (racemic) [Compound No 74 of Table 1, 9-[1-methyl-2-hydroxy-2-phenyl-ethyl]-2-pyridin-4-yl-6,7,8,9-tetrahydro-4H-pyrimido[1,2-a]pyrimidin-4-one]
4 | 230 to 232 °C | O=C(CCc1ccccc1)N1CCCn2c1nc(-c1ccncc1)cc2=O [Compound No 25 of Table 1, 9-[3-phenylpropanoyl]-2-pyridin-4-yl-6,7,8,9-tetrahydro-4H-pyrimido[1,2-a]pyrimidin-4-one]

From patent US7566720B2, “2-pyridinyl-6,7,8,9-tetrahydropyrimido[1,2-a] pyrimidin-4-one and 7-pyridinyl-2,3-dihydroimidazo[1,2-a] pyrimidin-5(1H)one derivatives” (Sanofi-Aventis, priority 2000, dated 2009)
